Source: the supplement of paper PMC10307832

Experiments:
[1] = compound: C[C@@H](Oc1cc(-c2cnn(C3CCNCC3)c2)cnc1N)c1c(Cl)ccc(F)c1Cl [Crizotinib] + C[C@]1(O)C[C@@H](c2nc(-c3ccc4ccc(-c5ccccc5)nc4c3)c3c(N)nccn32)C1 [Linsitinib] (partner 1 µM); assay: relative viability (nuclei count vs DMSO), 5 days (fraction); higher = more cells survive
Procedure, shortened: (§1)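 Five library-drug doses in √10 steps were combined with a fixed anchor-drug dose, or a single drug was given alone, by pin tool to lung cancer cell lines in 1536-well plates the day after seeding. Nuclei were stained and counted after 5 days. Relative viability is the nuclei count in treated wells over that in vehicle wells, taken as the median of duplicate plates.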

[2] = compound: C[C@@H](Oc1cc(-c2cnn(C3CCNCC3)c2)cnc1N)c1c(Cl)ccc(F)c1Cl [Crizotinib] + Cc1nc(NC(=O)N2CCC[C@H]2C(N)=O)sc1-c1ccnc(C(C)(C)C(F)(F)F)c1 [Alpelisib] (partner 2 µM); assay: as above
Procedure, shortened: as §1

Cell Line	relative viability ([1]; first compound 0.01 µM)	relative viability ([1]; first compound 0.03162 µM)	relative viability ([1]; first compound 0.1 µM)	relative viability ([1]; first compound 1 µM)	relative viability ([2]; first compound 0.01 µM)	relative viability ([2]; first compound 0.03162 µM)	relative viability ([2]; first compound 0.1 µM)	relative viability ([2]; first compound 1 µM)	relative viability ([1]; first compound 0.3162 µM)	relative viability ([2]; first compound 0.3162 µM)
NCI-H1915	1.02	1.09	1.1	1.1	1.08	1.08	1.14	1.09		
NCI-H1944	1.11	1.07	1.2	1.21	0.787		0.804	0.861	1.18	0.808
NCI-H1975	0.926	1.05	0.91	1.01	0.682	0.683	0.673	0.68	1.07	0.689
NCI-H1993	0.711	0.729	0.71	0.71	0.669	0.625	0.652	0.737	0.76	0.715
NCI-H2009	1.17	1.17	1.24	1.17	1.16	1.16		1.09	1.17	1.12
NCI-H2023	0.734	0.592	0.6	0.515	0.523	0.611	0.637	0.499	0.486	0.503
NCI-H2085	0.8	1.03	1	0.836	0.954	1.02		0.954	0.926	1.05
NCI-H2087	0.966	0.976	0.942	1.07	1.02			1.21	0.92	
NCI-H2126	0.73	0.724	0.706	0.717	0.719	0.782	0.714	0.79	0.691	0.708
NCI-H2170					0.804	0.779	0.74	0.904		0.709
NCI-H2228	0.629	0.733	0.718	0.328	0.666	0.799	0.769	0.288	0.371	0.451
NCI-H2347	0.913		1.03	0.993	1.04	1.03	1.03	0.996		0.978
NCI-H2405	0.885	0.897	0.882	0.919	0.74	0.762	0.69	0.857	1.04	0.818
NCI-H3122	1.02	1.03	1.08	1	0.729	0.667	0.857	0.796	1.01	0.867
PC-3 [JPC-3]	0.935	0.977	1.04	0.973	0.959	1.04	1.05	1.07	0.9	0.998
PC-14	0.913		0.974	1.02	0.914	0.921	0.931	0.911	0.905	0.845
RERF-LC-KJ	0.972	0.94			0.702	0.847	0.82		0.935	0.816
SK-LU-1	1.07	1.12	1.22	1.11	0.989	1.04	1.11		1.14	1.17
SK-MES-1	1.02	1.1	1.15		0.775	0.929	0.79		0.982	0.803
